Reference: paper PMC10976173, “Synthesis of 5-Benzylamino and 5-Alkylamino-Substituted Pyrimido[4,5-c]quinoline Derivatives as CSNK2A Inhibitors with Antiviral Activity” (Pharmaceuticals, 2024)
pIC50: −log10 of the molar value. ≈ marks a conversion by molar mass, not a printed value. Read-outs that look alike come from different tables or passages of the source.

Columns and labels:
[1] = tested on: DiscoverX KinomeSCAN assay panel of >400 human kinases; conditions: cited from earlier work; for Kinases Inhibited: Number of kinases showing 90% inhibition at 1 µM in DiscoverX KINOMEscan, ref [6]
[2] = set-up: method as in PMID 37077385; conditions: Kinetic solubility; ref [6]; cited from earlier work
[3] = tested on: Mouse Hepatitis Virus (MHV); test: microbe, parasite or virus in culture; format: cell-based; conditions: Murine coronavirus, read-out: MHV IC50
CSNK2A (CSNK2A2-NLuc) = molecular target: T1, CSNK2A (CSNK2A2-NLuc) (Homo sapiens, UniProt P19784); test: In-cell CSNK2A target engagement by NanoBRET assay; format: cell-based; conditions: for pIC50: In-cell target engagement by NanoBRET assay, HEK293 cells; for Designation: active / inactive analogs with 10-fold differences in IC50
T1 construct: expressed in transfected cells; host or cells: HEK293
Method: A transfection complex of DNA at 10 µg/mL was created, consisting of 9 µg/mL of carrier DNA (Promega, Madison, WI, USA) and 1 µg/mL of CSNK2A2-NLuc fusion DNA in Opti-MEM without serum (Gibco). FuGENE HD (Promega) was added at 30 µL/mL to form a lipid/DNA complex. The solution was then mixed and incubated at room temperature for 20 min. […] The following day, the media was removed via aspiration and replaced with 85 μL of Opti-MEM without phenol red. A total of 5 μL per well of 20×-NanoBRET Tracer K10 (Promega) at 5 μM in Tracer Dilution Buffer (Promega N291B) was added to all wells, except the “no tracer” control wells. Test compounds (10 mM in DMSO) were diluted 100× in Opti-MEM media to prepare stock solutions and evaluated at eleven concentrations. A total of 10 μL per well of the 10-fold test compound stock solutions (final assay concentration of 0.1% DMSO) was added. […] 96-well plates containing cells with NanoBRET Tracer K10 and test compounds (100 µL total volume per well) were equilibrated (37 °C/5% CO2) for 2 h. The plates were cooled to room temperature for 15 min. […] A total of 50 μL of the 3× substrate/extracellular NL inhibitor were added to each well. The plates were read within 30 min on a GloMax Discover luminometer (Promega) equipped with 450 nm BP filter (donor) and 600 nm LP filter (acceptor) using 0.3 s integration time. Raw milliBRET (mBRET) values were obtained by dividing the acceptor emission values (600 nm) by the donor emission values (450 nm) and multiplying by 1000. […] The data were first normalized and then fit using Sigmoidal, 4PL binding curve in GraphPad Prism version 9.5.1 to determine IC50 values (Figure S1).

[4] = Kinetic solubility in PBS pH 7.4; format: physicochemical; conditions: phosphate-buffered saline, pH 7.4, aqueous buffer, kinetic from dmso stock, PBS pH 7.4, 24 h
Method: Kinetic solubility assay was conducted using 10 mM DMSO stocks of compounds in phosphate-buffered saline solution (PBS) at pH 7.4 by Analiza, Inc., Cleveland, OH, USA. […] The calculated values were corrected for the background nitrogen in the media and DMSO.

[5] = Inhibition of MHV-NLuc in DBT cells

T1 sequence (P19784 whole entry): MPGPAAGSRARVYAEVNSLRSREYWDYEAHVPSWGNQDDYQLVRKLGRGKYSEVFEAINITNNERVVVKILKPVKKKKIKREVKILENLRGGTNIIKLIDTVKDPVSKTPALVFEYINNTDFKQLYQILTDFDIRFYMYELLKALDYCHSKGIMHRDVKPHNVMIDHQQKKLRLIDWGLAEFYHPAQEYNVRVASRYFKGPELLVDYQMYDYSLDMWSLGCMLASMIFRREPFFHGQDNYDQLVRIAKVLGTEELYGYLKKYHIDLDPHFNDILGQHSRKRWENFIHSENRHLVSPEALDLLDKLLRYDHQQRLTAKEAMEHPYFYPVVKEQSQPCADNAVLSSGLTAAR

Row | pIC50 [3] | SMILES | Kinases Inhibited [1] | Aqueous Solubility [2] | pIC50 (CSNK2A (CSNK2A2-NLuc)) | Designation (CSNK2A (CSNK2A2-NLuc)) | solubility at 24 h [4] | pIC50 [3, 5] | melting point | inhibition of CSNK2A1, CSNK2A2, and STK17B ([1]; at 1 µM, only these kinases of the panel, ref [3])
1 | – | O=C(O)c1ccc2c(c1)nc(Nc1cccc(Cl)c1)c1ccncc12 [silmitasertib, 5-(3-chlorophenylamino)benzo[c][2,6]naphthyridine-8-carboxylic acid] | 28/403 | 280 µM | – | – | – | – | – | –
2 | 4.82 | O=C(O)c1ccc2c(c1)nc(NCc1ccccc1)c1ncncc12 [SGC-CK2-2, reference compound] | – | 210 µM | – | – | – | – | – | –
3 | – | O=C(O)c1ccc2c(c1)nc(Nc1ccc3ccccc3c1)c1ncncc12 [Analog-11] | 10/403 | 54 µM | – | – | – | – | – | –
4 | – | O=C(O)c1ccc2c(c1)nc(NC1CCc3ccccc31)c1ncncc12 (centres unmarked) [Compound 4af, 5-((2,3-dihydro-1H-inden-1-yl)amino)pyrimido[4,5-c]quinoline-8-carboxylic acid] | – | – | 6.64 | Active | 160 µM (≈ 57 µg/mL) | 4.66 | 270 to 273 °C | –
5 | – | O=C(O)c1ccc2c(c1)nc(NCC13CC4CC(CC(C4)C1)C3)c1ncncc12 [Compound 4x, 5-((((3r,5r,7r)-adamantan-1-yl)methyl)amino)pyrimido[4,5-c]quinoline-8-carboxylic acid] | – | – | 6.85 | – | ~10 µM (≈ 3.88 µg/mL) | < 4.52 | 292 to 296 °C | –
6 | – | O=C(O)c1ccc2c(c1)nc(NCC1CCCCCC1)c1ncncc12 [Compound 4u, 5-((cycloheptylmethyl)amino)pyrimido[4,5-c]quinoline-8-carboxylic acid] | – | – | 6.70 | – | 150 µM (≈ 52.6 µg/mL) | 4.74 | 280 to 283 °C | –
7 | – | O=C(O)c1ccc2c(c1)nc(NCC1CCCCC1)c1ncncc12 [Compound 4t, 5-((cyclohexylmethyl)amino)pyrimido[4,5-c]quinoline-8-carboxylic acid] | – | – | 6.85 | Active | 180 µM (≈ 60.6 µg/mL) | 4.89 | 281 to 283 °C | –
8 | – | CCC(=O)Nc1cc(Nc2cc(NC3CC3)n3ncc(C#N)c3n2)ccc1C [SGC-CK2-1] | 3/403 | – | – | – | – | – | – | 90%
